Laboratory results: patent US5215994A, “Angiotenin II antagonizing heterocyclic derivatives” (Fujisawa Pharmaceutical Co., Ltd., priority 1990, dated 1993)

Tested on: contractile response to angiotensin II in excised guinea pig ileum
Assay: Inhibition by the antagonist of contractile response to angiotensin II in excised guinea pig ileum
Conditions: excised guinea pig ileum longitudinal strips; angiotensin II 10^-8 g/ml; test compound added 3 minutes prior; atropine present; 37° C.; read-out: IC50 (inhibition of angiotensin II contraction, percentage change to control response)
Experimental: [2] Inhibition by the antagonist of contractile response to angiotensin II in excised guinea pig ileum
Male guinea pigs weighing 300 g to 500 g were sacrificed by decapitation and the ileum were excised. Longitudial strips of the ileum (length: 2 cm) were placed in a 25 ml organ bath containing Tyrode's solution of the following composition (mM): NaCl, 137; KCl, 2.7; CaCl2, 1.8; MgCl2, 1.1; NaH2 PO4, 0.4; NaHCO3, 12; Glucose, 5.6.
The bath was maintained at 37° C. and bubbled with 95% O2 +5% CO2. The strips was stretched with a resting force of 0.5 g, and the isometric contraction were recorded via force development transducer on an ink-writing recorder. The preparation was equilibrated in Tyrode's solution mentioned above for 30 minutes, and then exposed to atropine (3.2×10^-7 g/ml) Five minutes later, the response for angiotensin II (1×10^-8 g/ml) was obtained and the preparation was washed a few times. This procedure was repeated twice. […] The inhibition of the test compound for angiotensin II contraction were expressed as a percentage change to control response, and IC50 (M) was calculated.

IC50: 1.7 nM
SMILES: CCCCc1nc2c(C)ccnc2n1Cc1ccc(-n2cc(Br)cc2-c2nnn[nH]2)cc1 [Compound 1, 3-[4-[4-Bromo-2-(1H-tetrazol-5-yl)-1-pyrrolyl]benzyl]-2-butyl-7-methyl-3H-imidazo[4,5-b]pyridine]
